Values quoted from earlier work as cited in patent US5998407A, “Inhibitors of farnesyl-protein transferase” (Merck & Co., Inc., priority 1998, dated 1999).

System: farnesyl-protein transferase
Conditions: via inhibition of HMG-CoA reductase

SMILES: CC[C@H](C)C(=O)O[C@H]1CCC=C2C=C[C@H](C)[C@H](CC[C@@H]3C[C@@H](O)CC(=O)O3)[C@H]21 [compactin]
- Indirect inhibition of farnesyl-protein transferase in vivo: Indirect inhibition of farnesyl-protein transferase in vivo has been demonstrated

SMILES: CC[C@H](C)C(=O)O[C@H]1C[C@@H](C)C=C2C=C[C@H](C)[C@H](CC[C@@H]3C[C@@H](O)CC(=O)O3)[C@H]21 [lovastatin]
- Indirect inhibition of farnesyl-protein transferase in vivo: Indirect inhibition of farnesyl-protein transferase in vivo has been demonstrated
